Reference: paper PMC11094793, “Discovery of LLC0424 as a Potent and Selective in Vivo NSD2 PROTAC Degrader” (Journal of Medicinal Chemistry, 2024)

Columns and labels:
SEM cells [1] = experiment: Cell viability assay (CellTiter-Glo, 7 days), SEM; assay type: cell-based, human
Procedure: (§1) Cells were plated in 50 μL of the corresponding media in 96-well plates. A 2-fold dilution series of 2* concentrated LLC0424 was prepared in a medium with the highest concentration being 60 μM. Then 50 μL of the 2× compound-containing mixture was added to each well with 6 replicates for each concentration, reaching 1× concentration, with the highest concentration being 30 μM. The plate was incubated for 7 days. At the end point, the CellTiter-Glo assay (Promega) was then performed according to the manufacturer’s instruction to determine cell proliferation. The luminescence signal intensity of each well was acquired on an Infinite M1000Pro microplate reader and the data was analyzed using GraphPad Prism software (GraphPad Software).

SEM cells [2] = experiment: RNA-seq global transcriptome analysis; assay type: cell-based, human; conditions: 14 days of treatment, versus DMSO
Procedure: NSD2 is the primary methyltransferase that transfers dimethyl to H3K36 in ALL with NSD2 gain-of-function mutation. Therefore, the effects of LLC0424 on H3K36me2 was evaluated in SEM and RPMI-8402 cells. […] Meanwhile, LLC0424 treatment also led to downregulation of H3K36Me2 in RPMI-8402 cells within 24 h (Figure 6B). […] We also conducted a colony formation assay to evaluate the effect of LLC0424 on the stem cell-like property of the leukemia cells. […] As LLC0424 leads to strong degradation of both NSD2-L and NSD2-S, the phenotypic changes upon LLC0424 treatment result from complete inactivation of NSD2 activity, including adaptor-like function of NSD2-S and SET-domain dependent enzymatic function of NSD2-L. The specific contributions of NSD2 isoforms warrant future investigation. To characterize the genes affected by LLC0424 treatment, we performed global transcriptome analysis of SEM cells treated by DMSO, LLC0424, or LLC0424N. […]
Total RNA was isolated from cells using the miRNeasy Mini Kit (Qiagen). […] Paired-end libraries were sequenced with the Illumina HiSeq 2500 (2 × 100 nucleotide read length) with sequence coverage to 15–20 M paired reads. […] Then we performed the analysis in R. First, EdgeR (edgeR_3.39.6) was used to perform read counts normalization and filtering (counts >10) and then Limma-Voom (limma_3.53.10) was used to analyze differential expression.

RPMI-8402 cells [3] = experiment: Cell viability assay (CellTiter-Glo, 7 days), RPMI-8402; assay type: cell-based, human
Procedure: as §1

RPMI-8402 cells [4] = experiment: Colony formation in soft agar; assay type: cell-based, human; conditions: 2 μM, 30 days, INT staining
Procedure: Colony formation in soft agar was conducted in 12-well plates, with the bottom layer containing 750 μL of 0.8% agarose in 10% FBS/cell media and the top layer containing 0.4% agarose (SEM cells or RPMI-8402 cells). LLC0424 was added every 3 days to the liquid layer on top agarose to reach a final concentration of 2 μM. At the 30 days of treatment, the cells were stained with iodonitrotetrazolium chloride (INT) by adding 500 μL 1× INT PBS solution into each well. After the staining, images were taken using brightfield microscope and plate scan was conducted using Epson Perfection V700 Photo. Colony number counting was performed using ImageJ.

[5] = target: T1, NSD2 (both long and short isoforms) (Homo sapiens, UniProt O96028); experiment: NSD2 degradation by immunoblotting in ALL cell lines RPMI-8402 and SEM (NSD2 E1099K); assay type: cell-based; conditions: for NSD2 degradation, comparison of degraders: RPMI-8402 and SEM cells, 0.5 and 2 μM for 24 h or 2 μM for 12 and 24 h
T1 sequence (O96028 211-350 limits assumed): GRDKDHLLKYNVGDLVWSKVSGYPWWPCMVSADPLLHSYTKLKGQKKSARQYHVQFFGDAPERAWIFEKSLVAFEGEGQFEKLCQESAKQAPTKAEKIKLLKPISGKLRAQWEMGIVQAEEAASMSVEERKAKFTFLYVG
Procedure: As previous studies have shown that ALL cell lines with NSD2 gain-of-function mutation are more dependent on NSD2 regarding H3K36me2 level and cell proliferation,[7],[8] we further characterized LLC0424 in ALL cell lines with NSD2 E1099K gain-of-function mutation (RPMI-8402 and SEM). We first treated these cells with LLC0424 with different concentrations for 24 h. […] In addition, we compared the degradation efficiency of LLC0424 with the two previously published NSD2 degraders 6 and 7 at different concentrations and time points.
(§2) After treatment, the cultured cells were collected and rinsed with phosphate-buffered saline (PBS) in room temperature. The cells were treated with RIPA buffers (ThermoFisher Scientific) supplemented with Halt Protease and Phosphatase Inhibitor Cocktail (ThermoFisher Scientific). After sonication and centrifugation, the total amount of protein in the cell lysates was measured by Pierce Bovine Serum Albumin Standard Pre-Diluted Set (ThermoFisher Scientific). After mixed with LDS-sample buffer (Invitrogen) supplemented with Sample Reducing Agent (Invitrogen) and heated in 70 °C for 10 min, equal amount of protein was loaded into NuPAGE 4–12%, Bis-Tris Protein Gel (ThermoFisher Scientific) or NuPAGE 3–8%, Tris-Acetate Protein Gel (ThermoFisher Scientific), and blotted with primary antibodies. After incubated with HRP-conjugated secondary antibodies, the membranes were developed with ECL Prime Western Blotting Detection Reagent (cytiva) and imaged on Odyssey Fc Imager (LiCOR Biosciences).

GSPT1 = target: T2, GSPT1 (Homo sapiens, UniProt P15170); experiment: GSPT1 level by proteomics and immunoblotting; assay type: cell-based; conditions: SI Figure S5B, SEM cells
T2 construct: endogenous in cells; host or cells: RPMI-8402, SEM, VCaP
Procedure: We conducted a global proteomic assay using tandem mass tags (TMT) labeled mass-spectrometry to unbiasedly quantify the protein change upon LLC0424 treatment in VCaP and RPMI-8402 cells. […] We further used SEM cell line to cross-validate the selectivity of LLC0424 for NSD2 over NSD1 and NSD3 as well as CRBN neo-substrates IKZF1, IKZF3, GSPT1, and CK-1α using immunoblotting. […] When we increased the treatment time of LLC0424 in SEM cells, we observed mild decrease of GSPT1 from 12 h (SI, Figure S3F).
NSD2 is the primary methyltransferase that transfers dimethyl to H3K36 in ALL with NSD2 gain-of-function mutation. Therefore, the effects of LLC0424 on H3K36me2 was evaluated in SEM and RPMI-8402 cells. […] Meanwhile, LLC0424 treatment also led to downregulation of H3K36Me2 in RPMI-8402 cells within 24 h (Figure 6B). […] We also conducted a colony formation assay to evaluate the effect of LLC0424 on the stem cell-like property of the leukemia cells. […] As LLC0424 leads to strong degradation of both NSD2-L and NSD2-S, the phenotypic changes upon LLC0424 treatment result from complete inactivation of NSD2 activity, including adaptor-like function of NSD2-S and SET-domain dependent enzymatic function of NSD2-L. The specific contributions of NSD2 isoforms warrant future investigation. To characterize the genes affected by LLC0424 treatment, we performed global transcriptome analysis of SEM cells treated by DMSO, LLC0424, or LLC0424N. LLC0424 treatment led to significant changes in the transcriptome of SEM cells with over 326 differentially expressed genes. […] We further explored the contribution of NSD2 loss to the phenotype we observed in SEM cells. […] Still, whether and how LLC0424’s modest effect on GSPT1 contributes to the cytotoxic effects remains to be further explored. We also designed and synthesized the negative control LLC0877 bearing the warhead that is devoid of NSD2 binding (SI, Figure S5A).
as §2, with “After incubated with HRP-conjugated secondary antibodies, the membranes were developed with ECL Prime Western Blotting Detection Reagent (cytiva) and imaged on Odyssey Fc Imager (LiCOR Biosciences).” left out

NSD2 [6] = target: T3, NSD2 (Homo sapiens, UniProt O96028); experiment: Compound screening: NSD2 degradation by immunoblotting in VCaP cells; conditions: 2 μM, VCaP cells, 24 h, immunoblotting
T3 sequence (O96028 1-1365): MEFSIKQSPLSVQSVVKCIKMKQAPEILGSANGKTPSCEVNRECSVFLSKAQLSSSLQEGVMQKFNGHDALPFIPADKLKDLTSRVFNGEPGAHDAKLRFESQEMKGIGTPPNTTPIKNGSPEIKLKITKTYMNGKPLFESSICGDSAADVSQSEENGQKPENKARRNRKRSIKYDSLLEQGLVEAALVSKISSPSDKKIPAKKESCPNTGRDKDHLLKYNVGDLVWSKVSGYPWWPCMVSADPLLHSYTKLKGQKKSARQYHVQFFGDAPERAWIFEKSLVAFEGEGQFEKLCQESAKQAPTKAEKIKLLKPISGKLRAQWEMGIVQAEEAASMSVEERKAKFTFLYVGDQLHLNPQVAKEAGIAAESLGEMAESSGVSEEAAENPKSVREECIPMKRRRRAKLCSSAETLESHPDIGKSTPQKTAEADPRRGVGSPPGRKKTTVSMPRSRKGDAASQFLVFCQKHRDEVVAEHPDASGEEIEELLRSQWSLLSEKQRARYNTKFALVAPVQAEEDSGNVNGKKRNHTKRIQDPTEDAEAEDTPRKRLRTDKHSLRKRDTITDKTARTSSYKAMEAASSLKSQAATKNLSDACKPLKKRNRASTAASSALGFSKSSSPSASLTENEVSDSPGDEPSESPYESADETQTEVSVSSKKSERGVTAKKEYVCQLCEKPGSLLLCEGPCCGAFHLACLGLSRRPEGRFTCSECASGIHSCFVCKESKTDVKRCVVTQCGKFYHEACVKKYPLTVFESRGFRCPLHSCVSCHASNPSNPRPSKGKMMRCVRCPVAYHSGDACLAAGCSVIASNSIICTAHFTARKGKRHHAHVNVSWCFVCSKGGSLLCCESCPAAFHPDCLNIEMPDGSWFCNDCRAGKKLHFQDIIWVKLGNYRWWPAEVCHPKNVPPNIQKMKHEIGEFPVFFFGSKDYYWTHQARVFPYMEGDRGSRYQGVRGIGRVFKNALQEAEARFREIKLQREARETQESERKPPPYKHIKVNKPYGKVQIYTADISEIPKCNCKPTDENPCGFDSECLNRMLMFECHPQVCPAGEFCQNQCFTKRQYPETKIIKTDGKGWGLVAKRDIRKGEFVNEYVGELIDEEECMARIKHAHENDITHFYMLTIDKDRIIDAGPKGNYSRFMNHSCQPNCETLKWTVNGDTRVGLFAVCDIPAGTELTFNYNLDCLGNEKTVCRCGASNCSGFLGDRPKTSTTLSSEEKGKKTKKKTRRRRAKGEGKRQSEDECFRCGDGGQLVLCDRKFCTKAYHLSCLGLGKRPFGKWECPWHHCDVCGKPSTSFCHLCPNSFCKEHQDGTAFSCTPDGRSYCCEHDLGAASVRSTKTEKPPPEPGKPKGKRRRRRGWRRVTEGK

NSD2 [7] = tested on: NSD2; parameters: method as in PMID 36976643; conditions: U2OS cells, 24 h treatment; cited from earlier work

T2 sequence (P15170 whole entry): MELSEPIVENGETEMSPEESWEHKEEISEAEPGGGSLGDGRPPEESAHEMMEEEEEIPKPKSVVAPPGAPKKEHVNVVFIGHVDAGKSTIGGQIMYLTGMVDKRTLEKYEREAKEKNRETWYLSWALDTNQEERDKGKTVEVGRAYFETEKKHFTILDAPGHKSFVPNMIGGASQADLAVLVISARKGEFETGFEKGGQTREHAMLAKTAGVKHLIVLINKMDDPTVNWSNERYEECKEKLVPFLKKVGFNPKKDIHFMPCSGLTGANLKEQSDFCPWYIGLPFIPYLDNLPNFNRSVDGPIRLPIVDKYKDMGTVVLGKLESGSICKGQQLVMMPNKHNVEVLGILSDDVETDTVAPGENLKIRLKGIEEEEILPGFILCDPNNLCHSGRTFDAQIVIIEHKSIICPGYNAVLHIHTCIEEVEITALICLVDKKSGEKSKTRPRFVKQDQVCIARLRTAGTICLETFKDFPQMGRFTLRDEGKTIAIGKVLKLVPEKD

SMILES | IC50 (growth, cell viability) (SEM cells [1]) | differentially expressed genes (transcriptome) (SEM cells [2]) | IC50 (growth, cell viability) (RPMI-8402 cells [3]) | formation of cell colonies (RPMI-8402 cells [4]) | NSD2 degradation, comparison of degraders [5] | GSPT1 degradation by negative control (GSPT1) | NSD2 degradation by negative control ([5]; SI Figure S5B, SEM cells) | % Degradation (NSD2 [6]) [%] | DC50 (NSD2 [7]) [nM] | Dmax (NSD2 [7]) [%]
CN1C(=O)CCC(N2C(=O)c3ccc(N4CCC(NC(=O)c5ccc(NC(=O)c6ccc(CN(C(=O)c7ccc8c(c7)OCC(=O)N8)C7CC7)cc6)cc5)CC4)cc3C2=O)C1=O (stereo not shown) [LLC0424N] | much less active | little transcription level changes | much less active | not | much less active |  |  |  |  | 
CC(C)N(Cc1ccc(C(=O)Nc2ccc(C(=O)NC3CCN(c4ccc5c(c4)C(=O)N(C4CCC(=O)NC4=O)C5=O)CC3)cc2)cc1)C(=O)c1ccc2c(c1)OCC(=O)N2 (stereo not shown) [LLC0877] | lower IC50 values |  | lower IC50 values |  |  | fast and strong degradation of GSPT1 | did not degrade NSD2 |  |  | 
NCCCCCCNC(=O)c1ccc(NC(=O)c2ccc(CN(C(=O)c3ccc4c(c3)OCC(=O)N4)C3CC3)cc2)cc1 [compound 7, reference compound] |  |  |  |  | much less active |  |  | 30 | 350 | 79
